Results from BindingDB's records for doi:10.1016/j.bmcl.2005.04.054 (Schering-Plough Research Institute, 2005).
pIC50: −log10 of the molar value.

Experiment: Inhibitory concentration against BaF3 cell line expressed recombinant human CCR3 using the chemotaxis assay

pIC50: 6.87
Structure (SMILES): O=C(NCC1CCCN(C2CCN(Cc3ccc(Cl)c(Cl)c3)CC2)C1)c1ccc2ncccc2c1 (stereo unspecified) [Quinoline-6-carboxylic acid [1'-(3,4-dichloro-benzyl)-[1,4']bipiperidinyl-3-ylmethyl]-amide]
